# In ChEMBL document CHEMBL3885881, “DrugMatrix”:
# Species on record: Rattus norvegicus
# Experiment: DrugMatrix - Regimen: Daily Repeat
# Assay type: toxicity, organism-based, Sprague-Dawley
# Set-up: regimen Daily Repeat, gender Male, age 6-8 weeks
# Settings: in vivo, po, route oral GAVAGE, vehicle 100 % SALINE
# [1] = 0 mg/kg, 72 h, tissue Plasma, dose level Control, time 3 day
# [2] = 0 mg/kg, 120 h, tissue Blood, dose level Control, time 5 day
# [3] = 0 mg/kg, 120 h, tissue Plasma, dose level Control, time 5 day
# [4] = 200 mg/kg, 72 h, tissue Blood, dose level Low, time 3 day
# [5] = 200 mg/kg, 72 h, tissue Plasma, dose level Low, time 3 day
# [6] = 200 mg/kg, 120 h, tissue Blood, dose level Low, time 5 day
# [7] = 200 mg/kg, 120 h, tissue Plasma, dose level Low, time 5 day
# [8] = 600 mg/kg, 72 h, tissue Blood, dose level High, time 3 day
# [9] = 600 mg/kg, 72 h, tissue Plasma, dose level High, time 3 day
# [10] = 600 mg/kg, 120 h, tissue Blood, dose level High, time 5 day
# [11] = 600 mg/kg, 120 h, tissue Plasma, dose level High, time 5 day
substance,measurement,setting,value
LEAD (II) ACETATE,ALANINE AMINOTRANSFERASE,[1],50.67 u/L
same,ALKALINE PHOSPHATASE,[1],356.33 u/L
same,ASPARTATE AMINOTRANSFERASE,[1],78.17 u/L
same,BLOOD UREA NITROGEN,[1],14.17 mg/dL
same,CARBON DIOXIDE,[1],31.33 mmol/L
same,CHLORIDE,[1],98.5 MEQ/L
same,CHOLESTEROL,[1],76.5 mg/dL
same,CREATINE PHOSPHOKINASE,[1],248.33 u/L
same,CREATININE,[1],0.2 mg/dL
same,LACTATE DEHYDROGENASE,[1],107 u/L
same,LIPASE,[1],9.83 u/L
same,PHOSPHORUS,[1],12.8 mg/dL
same,POTASSIUM,[1],6.75 MEQ/L
same,TOTAL BILIRUBIN,[1],0.18 mg/dL
same,TOTAL PROTEIN,[1],5.98 G/DL
same,URIC ACID,[1],1.42 mg/dL
same,ABSOLUTE BASOPHIL,[2],0 CELLS/uL
same,ABSOLUTE EOSINOPHIL,[2],0 CELLS/uL
same,ABSOLUTE LYMPHOCYTE,[2],8681.17 CELLS/uL
same,ABSOLUTE MONOCYTE,[2],79.83 CELLS/uL
same,ABSOLUTE SEGMENTED NEUTROPHIL,[2],689 CELLS/uL
same,BASOPHIL,[2],0%
same,EOSINOPHIL,[2],0%
same,ERYTHROCYTE COUNT,[2],5.49 x10E6/uL
same,HEMATOCRIT,[2],33.55%
same,HEMOGLOBIN,[2],13.1 G/DL
same,LEUKOCYTE COUNT,[2],9.45 x10E3/uL
same,LYMPHOCYTE,[2],92.33%
same,MEAN CORPUSCULAR HEMOGLOBIN,[2],23.92 pg
same,MEAN CORPUSCULAR HEMOGLOBIN CONCENTRATION,[2],39.07 G/DL
same,MONOCYTE,[2],0.67%
same,NEUTROPHIL,[2],7%
same,NUCLEATED RED BLOOD CELLS,[2],0.17 /100WBC
same,PLATELET COUNT,[2],1001.17 x10E3/uL
same,ALANINE AMINOTRANSFERASE,[3],49.33 u/L
same,ALKALINE PHOSPHATASE,[3],300.33 u/L
same,ASPARTATE AMINOTRANSFERASE,[3],83.5 u/L
same,BLOOD UREA NITROGEN,[3],16 mg/dL
same,CHLORIDE,[3],100.5 MEQ/L
same,CHOLESTEROL,[3],74.33 mg/dL
same,CREATINE PHOSPHOKINASE,[3],489.67 u/L
same,CREATININE,[3],0.35 mg/dL
same,GLUCOSE,[3],151 mg/dL
same,LACTATE DEHYDROGENASE,[3],133.67 u/L
same,LIPASE,[3],11.17 u/L
same,PHOSPHORUS,[3],10.88 mg/dL
same,POTASSIUM,[3],5.5 MEQ/L
same,SODIUM,[3],145.7 MEQ/L
same,TOTAL BILIRUBIN,[3],0.2 mg/dL
same,TOTAL PROTEIN,[3],6.05 G/DL
same,URIC ACID,[3],0.68 mg/dL
same,ABSOLUTE BASOPHIL,[4],0 CELLS/uL
same,ABSOLUTE EOSINOPHIL,[4],42 CELLS/uL
same,ABSOLUTE LYMPHOCYTE,[4],7845 CELLS/uL
same,ABSOLUTE MONOCYTE,[4],45.67 CELLS/uL
same,ABSOLUTE SEGMENTED NEUTROPHIL,[4],634 CELLS/uL
same,BASOPHIL,[4],0%
same,EOSINOPHIL,[4],0.67%
same,ERYTHROCYTE COUNT,[4],5.3 x10E6/uL
same,HEMATOCRIT,[4],32.4%
same,HEMOGLOBIN,[4],12.73 G/DL
same,LEUKOCYTE COUNT,[4],8.57 x10E3/uL
same,LYMPHOCYTE,[4],91.67%
same,MEAN CORPUSCULAR HEMOGLOBIN,[4],24.1 pg
same,MONOCYTE,[4],0.67%
same,NEUTROPHIL,[4],7%
same,NUCLEATED RED BLOOD CELLS,[4],0.67 /100WBC
same,PLATELET COUNT,[4],1060.33 x10E3/uL
same,ALANINE AMINOTRANSFERASE,[5],44.33 u/L
same,ALBUMIN,[5],4.1 G/DL
same,ALKALINE PHOSPHATASE,[5],338.33 u/L
same,ASPARTATE AMINOTRANSFERASE,[5],80.67 u/L
same,BLOOD UREA NITROGEN,[5],14 mg/dL
same,CHLORIDE,[5],100 MEQ/L
same,CHOLESTEROL,[5],80 mg/dL
same,CREATINE PHOSPHOKINASE,[5],412 u/L
same,CREATININE,[5],0.48 mg/dL
same,GLUCOSE,[5],189.33 mg/dL
same,LACTATE DEHYDROGENASE,[5],140.33 u/L
same,LIPASE,[5],11.67 u/L
same,PHOSPHORUS,[5],13.53 mg/dL
same,POTASSIUM,[5],5.59 MEQ/L
same,TOTAL BILIRUBIN,[5],0.13 mg/dL
same,TOTAL PROTEIN,[5],5.93 G/DL
same,URIC ACID,[5],1.37 mg/dL
same,ABSOLUTE BASOPHIL,[6],0 CELLS/uL
same,ABSOLUTE EOSINOPHIL,[6],25 CELLS/uL
same,ABSOLUTE MONOCYTE,[6],82.67 CELLS/uL
same,ABSOLUTE SEGMENTED NEUTROPHIL,[6],668 CELLS/uL
same,BASOPHIL,[6],0%
same,EOSINOPHIL,[6],0.33%
same,ERYTHROCYTE COUNT,[6],5.28 x10E6/uL
same,HEMATOCRIT,[6],32.07%
same,HEMOGLOBIN,[6],12.83 G/DL
same,LEUKOCYTE COUNT,[6],11.1 x10E3/uL
same,LYMPHOCYTE,[6],92.67%
same,MEAN CORPUSCULAR HEMOGLOBIN,[6],24.3 pg
same,MEAN CORPUSCULAR HEMOGLOBIN CONCENTRATION,[6],40.03 G/DL
same,MONOCYTE,[6],0.67%
same,NEUTROPHIL,[6],6.33%
same,NUCLEATED RED BLOOD CELLS,[6],0.67 /100WBC
same,PLATELET COUNT,[6],1339.67 x10E3/uL
same,ALANINE AMINOTRANSFERASE,[7],57.33 u/L
same,ALBUMIN,[7],3.9 G/DL
same,ALKALINE PHOSPHATASE,[7],297 u/L
same,ASPARTATE AMINOTRANSFERASE,[7],91 u/L
same,BLOOD UREA NITROGEN,[7],14.33 mg/dL
same,CARBON DIOXIDE,[7],30 mmol/L
same,CHLORIDE,[7],99.33 MEQ/L
same,CHOLESTEROL,[7],71.33 mg/dL
same,CREATINE PHOSPHOKINASE,[7],225 u/L
same,CREATININE,[7],0.46 mg/dL
same,LACTATE DEHYDROGENASE,[7],122 u/L
same,LIPASE,[7],9 u/L
same,PHOSPHORUS,[7],10.9 mg/dL
same,POTASSIUM,[7],5.95 MEQ/L
same,TOTAL BILIRUBIN,[7],0.13 mg/dL
same,TOTAL PROTEIN,[7],6.23 G/DL
same,URIC ACID,[7],0.7 mg/dL
same,ABSOLUTE BASOPHIL,[8],0 CELLS/uL
same,ABSOLUTE EOSINOPHIL,[8],32.67 CELLS/uL
same,ABSOLUTE LYMPHOCYTE,[8],9967.33 CELLS/uL
same,ABSOLUTE MONOCYTE,[8],129.67 CELLS/uL
same,ABSOLUTE SEGMENTED NEUTROPHIL,[8],570.33 CELLS/uL
same,BASOPHIL,[8],0%
same,EOSINOPHIL,[8],0.33%
same,ERYTHROCYTE COUNT,[8],5.69 x10E6/uL
same,HEMATOCRIT,[8],34.9%
same,HEMOGLOBIN,[8],13.73 G/DL
same,LEUKOCYTE COUNT,[8],10.7 x10E3/uL
same,LYMPHOCYTE,[8],92.67%
same,MEAN CORPUSCULAR HEMOGLOBIN,[8],24.13 pg
same,NEUTROPHIL,[8],5.67%
same,NUCLEATED RED BLOOD CELLS,[8],0.33 /100WBC
same,PLATELET COUNT,[8],964.67 x10E3/uL
same,ALANINE AMINOTRANSFERASE,[9],56.67 u/L
same,ALKALINE PHOSPHATASE,[9],262 u/L
same,ASPARTATE AMINOTRANSFERASE,[9],84.33 u/L
same,BLOOD UREA NITROGEN,[9],13.33 mg/dL
same,CHLORIDE,[9],99 MEQ/L
same,CREATINE PHOSPHOKINASE,[9],319.33 u/L
same,CREATININE,[9],0.55 mg/dL
same,LACTATE DEHYDROGENASE,[9],97 u/L
same,LIPASE,[9],14.33 u/L
same,PHOSPHORUS,[9],11.57 mg/dL
same,POTASSIUM,[9],5.33 MEQ/L
same,TOTAL BILIRUBIN,[9],0.1 mg/dL
same,TOTAL PROTEIN,[9],5.83 G/DL
same,URIC ACID,[9],0.87 mg/dL
same,ABSOLUTE BASOPHIL,[10],0 CELLS/uL
same,ABSOLUTE EOSINOPHIL,[10],20.67 CELLS/uL
same,ABSOLUTE LYMPHOCYTE,[10],6898.67 CELLS/uL
same,ABSOLUTE MONOCYTE,[10],79.33 CELLS/uL
same,ABSOLUTE SEGMENTED NEUTROPHIL,[10],568 CELLS/uL
same,BASOPHIL,[10],0%
same,EOSINOPHIL,[10],0.33%
same,ERYTHROCYTE COUNT,[10],5.67 x10E6/uL
same,HEMATOCRIT,[10],33.33%
same,HEMOGLOBIN,[10],12.97 G/DL
same,LEUKOCYTE COUNT,[10],7.57 x10E3/uL
same,LYMPHOCYTE,[10],90.67%
same,MEAN CORPUSCULAR HEMOGLOBIN,[10],22.87 pg
same,MEAN CORPUSCULAR HEMOGLOBIN CONCENTRATION,[10],38.93 G/DL
same,MEAN CORPUSCULAR VOLUME,[10],58.77 fL
same,MONOCYTE,[10],1%
same,NEUTROPHIL,[10],8%
same,NUCLEATED RED BLOOD CELLS,[10],0 /100WBC
same,PLATELET COUNT,[10],1398 x10E3/uL
same,ALANINE AMINOTRANSFERASE,[11],48 u/L
same,ALBUMIN,[11],4 G/DL
same,ALKALINE PHOSPHATASE,[11],286.67 u/L
same,ASPARTATE AMINOTRANSFERASE,[11],92.67 u/L
same,BLOOD UREA NITROGEN,[11],13.33 mg/dL
same,CHOLESTEROL,[11],76 mg/dL
same,CREATINE PHOSPHOKINASE,[11],510.67 u/L
same,CREATININE,[11],0.28 mg/dL
same,GLUCOSE,[11],157.67 mg/dL
same,LACTATE DEHYDROGENASE,[11],162.67 u/L
same,LIPASE,[11],11 u/L
same,POTASSIUM,[11],4.79 MEQ/L
same,TOTAL BILIRUBIN,[11],0.13 mg/dL
same,TOTAL PROTEIN,[11],5.6 G/DL
same,URIC ACID,[11],0.33 mg/dL
